Consider two molecules from publication PMC12362587, “Untargeted Diversity-Oriented Synthesis for the Discovery of New Antitumor Agents: An Integrated Approach of Inverse Virtual Screening, Bioinformatics, and Omics for Target Deconvolution” (Journal of Medicinal Chemistry, 2025).

The target in one assay is T1, A1 Human Adenosine GPCR (Homo sapiens, UniProt P30542).
T1 construct: Eurofins (contract assay)
T1 sequence (P30542 1-326): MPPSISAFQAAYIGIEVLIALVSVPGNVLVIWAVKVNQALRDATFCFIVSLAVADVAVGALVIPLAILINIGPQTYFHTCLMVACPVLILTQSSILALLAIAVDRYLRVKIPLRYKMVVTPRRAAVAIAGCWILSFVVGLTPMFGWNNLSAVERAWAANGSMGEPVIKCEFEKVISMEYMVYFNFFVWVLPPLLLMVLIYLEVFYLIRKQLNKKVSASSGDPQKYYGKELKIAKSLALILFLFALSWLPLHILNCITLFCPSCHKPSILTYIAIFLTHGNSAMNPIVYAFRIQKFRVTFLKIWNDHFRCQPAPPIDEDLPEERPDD
In words: Binding Agonist Radioligand LeadHunter Assay. The settings on record: Eurofins, read-out: EC50 or IC50, A1 Human Adenosine GPCR, agonist radioligand. An excerpt: (§1) For displacement assays on G-protein coupled receptor 55 (GPR55), Vasopressin V2 receptor (V2R), Adenosine A1 receptor (A1AR), Fibroblast growth factor receptor 1 (FGFR1), Vascular endothelial growth factor receptor 2 (VEGFR2), Platelet-derived growth factor receptor beta (PDGFRB), Vascular endothelial growth factor receptor 1 (VEGFR1), Thromboxane Synthase (TXS) and Phosphodiesterase 10A (PDE10A), we commissioned the Eurofins company which employed its specific experimental methods, accessible at the link: https://www.eurofins.com/.

The target of assay [1] is T2, V2 Human Vasopressin/Oxytocin GPCR (Homo sapiens, UniProt P30518).
T2 construct: Eurofins (contract assay)
T2 sequence (P30518 whole entry): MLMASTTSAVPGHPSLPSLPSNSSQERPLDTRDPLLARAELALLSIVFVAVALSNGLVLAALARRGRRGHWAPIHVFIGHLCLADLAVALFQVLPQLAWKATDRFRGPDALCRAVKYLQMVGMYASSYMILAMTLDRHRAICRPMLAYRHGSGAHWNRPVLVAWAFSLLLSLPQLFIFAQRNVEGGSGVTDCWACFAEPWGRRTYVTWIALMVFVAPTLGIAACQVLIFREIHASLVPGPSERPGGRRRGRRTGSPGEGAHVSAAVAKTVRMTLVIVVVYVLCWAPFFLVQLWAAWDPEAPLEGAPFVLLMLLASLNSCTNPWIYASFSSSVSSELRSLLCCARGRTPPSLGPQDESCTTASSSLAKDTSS
In words: Binding Agonist Radioligand LeadHunter Assay. To be noted: Eurofins, read-out: EC50 or IC50, V2 Human Vasopressin/Oxytocin GPCR.
Description: as §1

Another assay concerns the target human CB2R (Homo sapiens, UniProt P34972). In words: cAMP Hunter assay, functional activity at CB2R. The settings on record: CHO cells expressing human CB2R, alone and with JWH133. It counts as cell-based. Further details: host or cells: CHO-K1. The procedure: The curves show the effect of increasing concentrations of the compound on NKH-477-induced cAMP levels in stable CHO cells expressing the human CB2R. The effect of JWH-133 is reported as a reference compound. Data are reported as means ± standard error of three independent experiments conducted in triplicate and normalized considering the NKH-477 stimulus alone as 100% of the response as indicated in the experimental session. EC50 was determined by GraphPad Prism 9 as the concentration that provokes the response halfway between the baseline (bottom) and maximum response (top) of the fitted dose–response.
The functional activity at CB2Rs was evaluated using the cAMP Hunter assay with an enzyme fragment complementation chemiluminescent detection kit, as previously reported. Following the manufacturer’s instructions, this assay measured Gi-coupled cAMP modulation in CB2R-expressing cell lines (DiscoveRx, Fremont, CA). Briefly, CHO-K1 cells overexpressing the human CB2Rs were plated in a 96-well plate at a density of 10,000 cells per well and incubated overnight at 37 °C in 5% CO2. […] Following stimulation, the cells were lysed, and cAMP levels were detected according to the manufacturer’s protocol. Luminescence was measured using the GloMax Multi-Detection System (Promega, Italy). Results were expressed as mean ± SEM and derived from three independent experiments conducted in triplicate. […]

human CB2R, sequence (P34972 whole entry): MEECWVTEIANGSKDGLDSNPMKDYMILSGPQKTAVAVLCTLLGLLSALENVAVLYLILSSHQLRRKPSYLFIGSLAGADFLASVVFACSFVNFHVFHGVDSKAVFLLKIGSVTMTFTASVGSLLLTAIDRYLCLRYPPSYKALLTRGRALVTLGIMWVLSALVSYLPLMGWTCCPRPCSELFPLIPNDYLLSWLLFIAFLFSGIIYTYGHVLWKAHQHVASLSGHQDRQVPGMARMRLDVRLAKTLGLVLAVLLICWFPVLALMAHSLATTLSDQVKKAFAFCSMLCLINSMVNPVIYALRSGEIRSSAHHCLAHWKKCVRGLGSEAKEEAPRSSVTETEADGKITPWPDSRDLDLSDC

For the molecule `CC(C)C[C@H]1C(=O)N(Cc2ccc(C(F)(F)F)cc2)c2ccccc2C(=O)N1Cc1ccc(C(F)(F)F)cc1` [Compound 31, (S)-3-Isobutyl-1,4-bis(4-(trifluoromethyl)benzyl)-3,4-dihydro-1H-benzo[e][1,4]diazepine-2,5-dione], the IC50 (at A1 Human Adenosine GPCR; in assay [1]) was at least 30 µM each time.

With `CC(C)C[C@@H](C(=O)OCc1ccccc1)N1Cc2ccccc2NC1=O` [Compound 63, Benzyl (S)-4-Methyl-2-(2-oxo-1,4-dihydroquinazolin-3(2H)-yl)pentanoate], the “functional activity at CB2R (NKH-477-induced cAMP levels)” value on human CB2R is on record as “functional inverse agonist activity”. Further, the IC50 (at A1 Human Adenosine GPCR; in assay [1]) was at least 30 µM in each case.
